Test system: microfilariae of Dirofilaria immitis
Experiment: Dirofilaria immitis, Microfilaria (DiMF) Assay
Type: cell-based
Details: read-out: D. immitis activity level (IC50 or MED)
In short: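 D. immitis microfilariae were incubated in medium with DMSO-diluted compounds for about 72 h. Survival or paralysis was scored subjectively under the microscope. Values are Minimum Effective Dose (MED).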

With `CC(C)c1cnc(Nc2nc(-c3cc(OC4CC4)ccn3)ns2)cc1C(F)(F)F` [Compound 96, 3-(4-cycloprop-oxypyridin-2-yl)-N-(5-isopropyl-4-(trifluoromethyl)pyridin-2-yl)-1,2,4-thiadiazol-5-amine] the IC50 was less than 200 nM.
`Cc1cccnc1Nc1nc(-c2ccc(OC3CCOCC3)cn2)no1` [Compound 16, N-(3-methyl-pyridin-2-yl)-3-(5-(tetrahydro-2H-pyran-4-yloxy)pyridin-2-yl)-1,2,4-oxadiazol-5-amine] was tested, and the IC50 was 500 to 5000 nM.
With `CC(C)Oc1ccc(-c2nsc(Nc3nccnc3N(C)C)n2)nc1` [Compound 144, N2-(3-(5-isoprop-oxypyridin-2-yl)-1,2,4-thiadiazol-5-yl)-N3,N3-dimethyl-pyrazine-2,3-diamine] the IC50 was 200 to 500 nM.
For `COc1cccnc1Nc1nc(-c2ccc(OC3CC3)cn2)ns1` [Compound 80, 3-(5-cycloprop-oxypyridin-2-yl)-N-(3-methoxypyridin-2-yl)-1,2,4-thiadiazol-5-amine], the IC50 was 500 to 5000 nM.
For `CC(C)Oc1ccc(-c2nsc(Nc3ncccc3C(F)(F)F)n2)nc1` [Compound 54, 3-(5-isopropoxy-pyridin-2-yl)-N-(3-(trifluoromethyl)pyridin-2-yl)-1,2,4-thiadiazol-5-amine], the IC50 was less than 200 nM.
Compound `FC(F)(F)c1ccc(Nc2nc(-c3ccccn3)ns2)nc1` [Cmpd 1] has an IC50 of less than 200 nM.
`CC(=O)N1CCC(Oc2ccc(-c3nsc(Nc4ncccc4C)n3)nc2)CC1` [Compound 266, 1-(4-(6-(5-(3-methyl-pyridin-2-ylamino)-1,2,4-thiadiazol-3-yl)pyridin-3-yloxy)piperidin-1-yl)ethanone] was tested, and the IC50 was 500 to 5000 nM.
In the case of `Cc1cccnc1Nc1nc(-c2ncc(OC3CC3)cc2C(F)(F)F)ns1` [Compound 93, 3-(5-cyclo-propoxy-3-(trifluoromethyl)pyridin-2-yl)-N-(3-methyl-pyridin-2-yl)-1,2,4-thiadiazol-5-amine], the IC50 is reported as 500 to 5000 nM.
In the case of `CC(C)Oc1cnc(-c2nsc(Nc3ncccc3N(C)C)n2)cc1C(F)(F)F` [Compound 156, N2-(3-(5-isopropoxy-4-(trifluoromethyl)pyridin-2-yl)-1,2,4-thiadiazol-5-yl)-N3,N3-dimethyl-pyridine-2,3-diamine], the IC50 is reported as 200 to 500 nM.
`CC(C)c1cnc(Nc2nc(-c3ncccc3OC3CC3)ns2)cc1C(F)(F)F` [Compound 97, 3-(3-cycloprop-oxypyridin-2-yl)-N-(5-isopropyl-4-(trifluoromethyl)pyridin-2-yl)-1,2,4-thiadiazol-5-amine] was tested, and the IC50 was less than 200 nM.
With `CC(C)Oc1ccc(-c2nsc(Nc3ncccc3C(=O)N(C)C3CC(F)(F)C3)n2)nc1` [Compound 191, N-(3,3-difluoro-cyclobutyl)-2-(3-(5-isoprop-oxypyridin-2-yl)-1,2,4-thiadiazol-5-ylamino)-N-methyl-nicotinamide] the IC50 was 500 to 5000 nM.
`COc1cc(C(C)C)cnc1Nc1nc(-c2ccc(OC(C)C)cn2)ns1` [Compound 166, 3-(5-isopropoxy-pyridin-2-yl)-N-(5-isopropyl-3-methoxypyridin-2-yl)-1,2,4-thiadiazol-5-amine] showed an IC50 of 500 to 5000 nM.
Compound `Cc1cccnc1Nc1nc(-c2ccc(O[C@@H]3CCN(C4CC4)C[C@H]3F)cn2)ns1` [Compound 91, 3-(5-((3R,4R)-1-cyclopropyl-3-fluoro-piperidin-4-yloxy)pyridin-2-yl)-N-(3-methylpyridin-2-yl)-1,2,4-thiadiazol-5-amine] has an IC50 of 500 to 5000 nM.
With `c1ccc(-c2ccnc(Nc3nc(-c4ccccn4)no3)c2)cc1` [Compound 246, N-(4-phenyl-pyridin-2-yl)-3-(pyridin-2-yl)-1,2,4-oxadiazol-5-amine] the IC50 was 500 to 5000 nM.
Work on `CC(=O)N(C)c1cccnc1Nc1nc(-c2cc(C(C)C)c(C)cn2)ns1` [Compound 223, N-(2-(3-(4-isopropyl-5-methylpyridin-2-yl)-1,2,4-thiadiazol-5-ylamino)pyridin-3-yl)-N-methyl-acetamide] yielded an IC50 of 200 to 500 nM.
For `CC(C)c1ccnc(-c2nsc(Nc3cc(C(F)(F)F)ccn3)n2)c1` [Compound 86, 3-(4-isopropyl-pyridin-2-yl)-N-(4-(trifluoromethyl)pyridin-2-yl)-1,2,4-thiadiazol-5-amine], the IC50 was less than 200 nM.
`FC(F)(F)c1cncc(Nc2nc(-c3ccccn3)ns2)c1` [Cmpd 3, 3-(pyridin-2-yl)-N-(5-(trifluoromethyl)pyridin-3-yl)-1,2,4-thiadiazol-5-amine] was tested, and the IC50 was 500 to 5000 nM.
Work on `CC(=O)N(C)c1cccnc1Nc1nc(-c2ccc(OC3CCN(C(C)C)CC3(F)F)cn2)ns1` (centres unmarked) [Compound 203, N-(2-(3-(5-(3,3-difluoro-1-isopropyl-piperidin-4-yloxy)pyridin-2-yl)-1,2,4-thiadiazol-5-ylamino)pyridin-3-yl)-N-methylacetamide] yielded an IC50 of 500 to 5000 nM.
Work on `CC(C)Oc1cnc(-c2nsc(Nc3ncccc3C(=O)N(C)C3CC3)n2)cc1C(F)(F)F` [Compound 263, N-cyclo-propyl-2-(3-(5-isopropoxy-4-(trifluoro-methyl)pyridin-2-yl)-1,2,4-thiadiazol-5-ylamino)-N-methyl-nicotinamide] yielded an IC50 of less than 200 nM.
With `CN(C)c1cccnc1Nc1nc(-c2ccc(F)cn2)ns1` [Compound 121, N2-(3-(5-fluoro-pyridin-2-yl)-1,2,4-thiadiazol-5-yl)-N3,N3-dimethylpyridine-2,3-diamine] the IC50 was 500 to 5000 nM.
Work on `CC(C)Oc1cnc(-c2nsc(Nc3ncccc3C(F)(F)F)n2)cc1C(N)=O` [Compound 220, 5-isopropoxy-2-(5-(3-(trifluoromethyl)pyridin-2-ylamino)-1,2,4-thiadiazol-3-yl)isonico-tinamide] yielded an IC50 of 500 to 5000 nM.
`CC(C)c1ccnc(-c2nsc(Nc3ncccc3N(C)C(=O)C3CC3)n2)c1` [Compound 217, N-(2-(3-(4-isopropylpyridin-2-yl)-1,2,4-thiadiazol-5-ylamino)pyridin-3-yl)-N-methylcyclo-propanecarbox-amide] was tested, and the IC50 was 500 to 5000 nM.
Work on `CC(C)Oc1ccc(-c2nsc(Nc3ncccc3N(C)C)n2)nn1` [Compound 155, N2-(3-(6-isopropoxy-pyridazin-3-yl)-1,2,4-thiadiazol-5-yl)-N3,N3-dimethyl-pyridine-2,3-diamine] yielded an IC50 of 500 to 5000 nM.
With `COc1cccnc1Nc1nc(-c2ccc(OC3CC(F)(F)C3)cn2)ns1` [Compound 137, 3-(5-(3,3-difluorocyclo-butoxy)pyridin-2-yl)-N-(3-methoxypyridin-2-yl)-1,2,4-thiadiazol-5-amine] the IC50 was 500 to 5000 nM.
With `Cc1cccnc1-c1noc(Nc2ccc(N3CCCC3)cn2)n1` [Compound 42, 3-(3-methyl-pyridin-2-yl)-N-(5-(pyrrolidin-1-yl)pyridin-2-yl)-1,2,4-oxadiazol-5-amine] the IC50 was 500 to 5000 nM.
With `Cc1ccnc(-c2nsc(Nc3ncccc3F)n2)c1` [Compound 12, N-(3-fluoropyridin-2-yl)-3-(4-methylpyridin-2-yl)-1,2,4-thiadiazol-5-amine] the IC50 was 200 to 500 nM.
For `CC(=O)N(C)c1cc(C(F)(F)F)cnc1Nc1nc(-c2cc3c(cn2)OC(C)(C)C3)ns1` [Compound 272, N-(2-(3-(2,2-dimethyl-2,3-dihydrofuro [2,3-c]pyridin-5-yl)-1,2,4-thiadiazol-5-ylamino)-5-(trifluoromethyl)pyridin-3-yl)-N-methylacetamide], the IC50 was less than 200 nM.
`Cc1cccnc1Nc1nc(-c2ccc(OC(C)C)cn2)no1` [Compound 20, 3-(5-isopropoxy-pyridin-2-yl)-N-(3-methyl-pyridin-2-yl)-1,2,4-oxadiazol-5-amine] showed an IC50 of 500 to 5000 nM.
With `Cc1cccnc1Nc1nc(-c2ccc(OC3CCN(C4CC4)CC3(F)F)cn2)ns1` (centres unmarked) [Compound 83, 3-(5-(1-cyclo-propyl-3,3-difluoro-piperidin-4-yloxy)pyridin-2-yl)-N-(3-methylpyridin-2-yl)-1,2,4-thiadiazol-5-amine] the IC50 was 200 to 500 nM.
`CN(C)c1cccnc1Nc1nc(-c2ccc(OCC3CC3)cn2)ns1` [Compound 118, N2-(3-(5-(cyclopropyl-methoxy)pyridin-2-yl)-1,2,4-thiadiazol-5-yl)-N3,N3-dimethyl-pyridine-2,3-diamine] gave an IC50 of 500 to 5000 nM.
`CC(C)Oc1cnc(-c2nsc(Nc3ncc(C(C)C)cc3C(F)(F)F)n2)cc1C(=O)N(C)C` [Compound 219, 5-isopropoxy-2-(5-(5-isopropyl-3-(trifluoromethyl)pyridin-2-ylamino)-1,2,4-thiadiazol-3-yl)-N,N-dimethyliso-nicotinamide] gave an IC50 of 200 to 500 nM.
`COc1cnc(Nc2nc(-c3cc(C(N)=O)c(OC(C)C)cn3)ns2)c(C(F)(F)F)c1` [Compound 253, 5-isopropoxy-2-(5-(5-methoxy-3-(trifluoro-methyl)pyridin-2-ylamino)-1,2,4-thiadiazol-3-yl)isonico-tinamide] gave an IC50 of 500 to 5000 nM.
`FC(F)(F)c1ccc(Nc2nc(-c3cc(OC4CCCCC4)ccn3)ns2)nc1` [Compound 213, 3-(4-(cyclo-hexyloxy)pyridin-2-yl)-N-(5-(trifluoromethyl)pyridin-2-yl)-1,2,4-thiadiazol-5-amine] gave an IC50 of less than 200 nM.
`CC(C)Oc1ccc(-c2nsc(Nc3ncccc3N(C)C(=O)C3CC3)n2)nc1` [Compound 170, N-(2-(3-(5-isopropoxy-pyridin-2-yl)-1,2,4-thiadiazol-5-ylamino)pyridin-3-yl)-N-methylcyclo-propanecarbox-amide] gave an IC50 of 500 to 5000 nM.
`CN(C)c1cccnc1Nc1nc(-c2ccc(OC(F)F)cn2)ns1` [Compound 120, N2-(3-(5-(difluoromethoxy)pyridin-2-yl)-1,2,4-thiadiazol-5-yl)-N3,N3-dimethyl-pyridine-2,3-diamine] gave an IC50 of 500 to 5000 nM.
`CC(C)Oc1ccc(-c2nsc(Nc3ncc(C(=O)NC4CC(F)(F)C4)cc3C(C)C)n2)nc1` [Compound 195, N-(3,3-difluoro-cyclobutyl)-6-(3-(5-isoprop-oxypyridin-2-yl)-1,2,4-thiadiazol-5-ylamino)-5-isopropyl-nicotinamide] showed an IC50 of 500 to 5000 nM.
Work on `COC(=O)c1cccnc1Nc1nc(-c2ccc(OC(C)C)cn2)ns1` [Compound 276, methyl 2-(3-(5-isopropoxy-pyridin-2-yl)-1,2,4-thiadiazol-5-ylamino) nicotinate] yielded an IC50 of 500 to 5000 nM.
`CC(C)Oc1cnc(-c2nsc(Nc3ncccc3C(C)C)n2)cc1C(N)=O` [Compound 198, 5-isopropoxy-2-(5-(3-isopropylpyridin-2-ylamino)-1,2,4-thiadiazol-3-yl)isonicotin-amide] showed an IC50 of 500 to 5000 nM.
